{"source": "patent US11814366B2", "about": "“Antiviral compounds and use thereof” (UNIVERSITA DEGLI STUDI DI SIENA, priority 2018, dated 2023)", "key": {"RSV": {"test_system": "RSV", "assay": "RSV inhibition assay on Hep-2 cells", "type": "cell-based, RSV strain A2", "conditions": "human respiratory syncytial virus", "experimental": "Hep-2 cells were pre-plated in a 96-well plate. The following day concentrations of compounds ranging from 50 μM to 0.0001 μM in DMSO were mixed with RSV (MOI 0.005 pfu/cell) and incubated for 1 hour at 37° C. The mixtures were subsequently added to the cells, which were then incubated at 37° C. for 3 h; monolayers were then washed and overlaid with 1.2% methylcellulose medium. 72 hours later cells were fixed and subjected to specific immunostaining using an RSV monoclonal antibody (Ab35958; Abeam, Cambridge, United Kingdom) in order to visualize syncytia. EC50 were calculated by comparing numbers of syncytia in treated and untreated wells. The effective concentration producing 50% reduction in plaque formation (EC50) was determined using Prism software. The selectivity index (SI) was calculated by dividing the CC50 by the EC50 value."}, "HSV-2": {"test_system": "HSV-2", "assay": "During infection assay, HSV-2 on Vero cells without preincubation", "type": "cell-based, Herpes 2 virus (HSV-2)", "conditions": "Human alphaherpesvirus 2; HSV-2, Vero cells, no preincubation of compound and virus; read-out: EC50 in during infection (DI) assay", "experimental": "During infection cells were subjected to the same experiment described above for the evaluation of HSV inhibition without the preincubation between compounds and virus."}, "in vitro": {"assay": "in vitro", "conditions": "African green monkey"}}, "data": [{"smiles": "O=C1NC(=S)N(CCc2ccccc2)C(=O)/C1=C\\c1ccc(-c2ccc(C(=O)O)c(O)c2)[nH]1", "note": "[Compound 15b, (Z)-4-(5-((4,6-dioxo-1-phenethyl-2-thioxotetrahydropyrimidin-5(2H)-ylidene)methyl)-1H-pyrrol-2-yl)-2-hydroxybenzoic Acid]", "values": [{"measurement": "EC50", "setting": "RSV", "result": 0.315, "unit": "µM"}, {"measurement": "EC90", "setting": "RSV", "result": 1.51, "unit": "µM"}, {"measurement": "EC50", "setting": "HSV-2", "result": 7.89, "unit": "µM"}, {"measurement": "CC50", "setting": "in vitro; CC50, conditions of the HSV-1 assay", "result": "> 300", "unit": "µM"}, {"measurement": "CC50", "setting": "in vitro; CC50, conditions of the HSV-2 Acy R assay", "result": "> 300", "unit": "µM"}, {"measurement": "CC50", "setting": "in vitro; CC50, conditions of the HSV-2 assay (Table 2)", "result": "> 300", "unit": "µM"}, {"measurement": "CC50", "setting": "in vitro; CC50, conditions of the ZIKAV assay (Table 3)", "result": "> 111", "unit": "µM"}]}]}
